The text below walks through data of EP0153858A2, “The therapeutic use of prostaglandins” (THE UPJOHN COMPANY, priority 1984, dated 1985).

In assay [1] the test system is endotoxin-induced lung injury. The note with it: infusion of the prostaglandin; cited from earlier work.
For assay [2], the system named is patients with severe postoperative ARDS. The note with it: cited from earlier work.
Assay [3] concerns patients with ARDS. The assay can be described thus: Double blind randomized study of PGE1 versus placebo in ARDS patients; survival, and mortality by creatinine/bilirubin level (Example 2). Format: in vivo, human. The conditions noted are these: 30 ng/kg/min for 7 days; 17 out of 26 patients survived. On the procedure:
Fifty patients with ARDS were randomized to receive PGE1 (30 ng/kg/min for 7 days) or placebo (equivalent volumes of saline and time) in a double blind study. For entry, patients must have required mechanical ventilation with an inspired oxygen concentration of 40% or more and a positive end respiratory pressure of 5 em of water or more. Most of the patients (70%) were septic. 17 out of 26 patients who had received PGE1 survived (65% survival) while only 7 out of 24 patients who had received placebo survived (29% survival).
The relation between the bilirubin and creatinine levels and the mortality of the patients enrolled in this study is depicted in Table 2. […] Creatinine and bilirubin levels are indicative of kidney and liver function, respectively. The data thus indicate that PGE1 prevents severe kidney and liver damage, and greatly decreases the risk of death, for patients highly susceptible to kidney failure, liver failure, and/or death as a result of trauma, sepsis, shock, and similar catastrophic events.

The subject of assay [4] is beagles suffering from hemorrhagic shock. The conditions noted are these: infusion; cited from earlier work.
Assay [5] relates to patients suffering from ARDS. The assay can be described thus: Prospective randomized double blind placebo controlled study of PGE1 infusion in ARDS patients (Example 1). Format: in vivo, human. The note with it: 30 days after discontinuing the infusion; i.v. 5 ng/kg/min increased to 30 ng/kg/min, for 7 days or until extubated; 21 patients. The method, then:
An intravenous solution was prepared by mixing one 5 ml ampoule of Prostin VR Pediatric Sterile Solution containing 2.5 mg PGE1 active drug with one liter of D5W or Normal Saline. Dosages of this solution or of a control solution containing only vehicle but no PGE1 were administered to 41 patients suffering from ARDS in a prospective randomized double blind placebo controlled study. PGE1 or the control solution was started at a dose of 5 ng/kg/min and then increased 5 ng/kg/min every 30 minutes until a rate of 30 ng/kg/min was reached.
This dosage was continued for 7 days or until the patient was extubated, whichever came sooner. The survival rate 30 days after discontinuing the infusion was as follows: […]

Assay [6] concerns microvascular permeability. The conditions noted are these: sheep; cited from earlier work.
Assay [7] concerns trauma. The conditions noted are these: reported experimentally; cited from earlier work.

As for `CCCCC[C@H](O)/C=C/[C@H]1[C@H](O)CC(=O)[C@@H]1CCCCCCC(=O)O` [PGE1, Prostaglandin E1], the “lung and systemic injury associated with endotoxin infusion” value in assay [1] is on record as “decreased”. Further, the “lung function of each patient” value in assay [2] (5 patients with severe postoperative ARDS) was “improved”. The “patients died of associated problems, including vital organ failure” value in assay [2] (of 5 patients with severe postoperative ARDS) was “three”. In assay [3], this compound registered a survival of 65%. Moreover, the survival rate result in assay [4] was “improved”. The “Survival Rate (%)” value in assay [5] was 71.4%. The “increase of microvascular permeability” value in assay [6] is “Reversal”.

With `CCCCC[C@H](O)/C=C/[C@@H]1[C@H]2C/C(=C/CCCC(=O)O)O[C@H]2C[C@H]1O` [PGI2, prostacyclin], the “lung and systemic injury associated with endotoxin infusion” value in assay [1] is on record as “decreased”. In addition, the “survival rate after trauma” value in assay [7] was “beneficial in increasing the survival rate”.
